Measured values published in patent US4618613A, “Preventive and healing composition for diseases due to lipoxygenase metabolic products” (Kyowa Hakko Kogyo Company, Ltd., priority 1983, dated 1986).
Structures can show the parent of a compound that is named as a salt. Where two headings read alike, the source gives them in different places.

Experiments:
12-lipoxygenase = molecular target: T1, 12-lipoxygenase (Bos taurus, UniProt F1MFA8); assay: inhibiting action upon blood platelet 12-lipoxygenase; format: biochemical, bovine; conditions: for inhibition at 1000 µM: pH 7.4, with 1,000 μM of each compound, read-out: 12-lipoxygenase, inhibiting ratio
T1 construct: a preparation prepared from bovine blood platelets was used as an enzyme source; from tissue; host or cells: bovine blood platelets
T1 sequence (F1MFA8 1-663): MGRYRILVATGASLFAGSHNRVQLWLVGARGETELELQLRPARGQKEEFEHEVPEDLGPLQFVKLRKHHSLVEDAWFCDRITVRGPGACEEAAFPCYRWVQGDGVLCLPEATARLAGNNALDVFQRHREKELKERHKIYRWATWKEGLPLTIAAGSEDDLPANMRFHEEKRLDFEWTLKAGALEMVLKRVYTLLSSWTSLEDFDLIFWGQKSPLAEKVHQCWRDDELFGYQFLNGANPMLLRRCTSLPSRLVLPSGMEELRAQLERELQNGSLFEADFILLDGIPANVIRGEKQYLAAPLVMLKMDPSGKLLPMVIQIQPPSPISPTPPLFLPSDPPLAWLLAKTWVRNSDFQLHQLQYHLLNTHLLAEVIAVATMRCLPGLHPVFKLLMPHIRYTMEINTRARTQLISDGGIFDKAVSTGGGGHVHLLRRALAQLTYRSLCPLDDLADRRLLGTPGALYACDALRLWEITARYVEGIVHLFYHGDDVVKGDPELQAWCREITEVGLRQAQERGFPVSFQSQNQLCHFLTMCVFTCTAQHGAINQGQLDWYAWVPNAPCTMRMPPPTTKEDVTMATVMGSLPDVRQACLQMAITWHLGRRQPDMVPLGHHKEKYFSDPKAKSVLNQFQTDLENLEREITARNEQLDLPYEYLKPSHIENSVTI
Method: (§1) An inhibiting action of 2-n-heptyl-4-hydroxyquinoline-N-oxide upon lipoxygenase was determined by in vitro test according to the following procesure:
(a) Procedure for determining the inhibiting action upon blood platelet 12-lipoxygenase:
Determination was carried out according to D. H. Nugtern, et al, procedure (Biochem. Biophys. Acta, 380, 299 (1975)). That is, a preparation prepared from bovine blood platelets was used as an enzyme source. The blood platelet lipoxygenase preparation and 2-n-heptyl-4-hydroxyguinoline-N-oxide were brought into contact with each other in a 0.01M tris hydrochloric acid buffer solution (pH 7.4) at 30° C. for 5 minutes in advance, and then 35 μM of [^14 C]arachidonic acid was added thereto. The mixture was incubated at 30° C. for 10 minutes. The reaction product was extracted with ethyl acetate/methanol/0.2M citric acid (30/4/1), and then separated by thin layer chromatography (developing solvent system: ligroin/ethyl ether/acetic acid: (50/50/1). The spot of 12-hydroxy-5,8,10,14-eicosatetraenoic acid in the product was scraped off and ^14 C was measured by a liquid scintillation counter.
(§2) Inhibiting actions of compounds in Table 2 upon lipoxygenase were determined in the same manner as in Test Example 1.

5-lipoxygenase = molecular target: T2, 5-lipoxygenase (Rattus norvegicus, UniProt P12527); assay: inhibiting action upon leukocyte 5-lipoxygenase (RBL-1 cells as enzyme source); format: biochemical
T2 construct: leukemic basophilic granulocyte cells of rats (RBL-1, ATCC No. CRL 1378) were used as a 5-lipoxygenase enzyme source; host or cells: RBL-1 (rat basophilic leukemia cells)
T2 sequence (P12527 1-673): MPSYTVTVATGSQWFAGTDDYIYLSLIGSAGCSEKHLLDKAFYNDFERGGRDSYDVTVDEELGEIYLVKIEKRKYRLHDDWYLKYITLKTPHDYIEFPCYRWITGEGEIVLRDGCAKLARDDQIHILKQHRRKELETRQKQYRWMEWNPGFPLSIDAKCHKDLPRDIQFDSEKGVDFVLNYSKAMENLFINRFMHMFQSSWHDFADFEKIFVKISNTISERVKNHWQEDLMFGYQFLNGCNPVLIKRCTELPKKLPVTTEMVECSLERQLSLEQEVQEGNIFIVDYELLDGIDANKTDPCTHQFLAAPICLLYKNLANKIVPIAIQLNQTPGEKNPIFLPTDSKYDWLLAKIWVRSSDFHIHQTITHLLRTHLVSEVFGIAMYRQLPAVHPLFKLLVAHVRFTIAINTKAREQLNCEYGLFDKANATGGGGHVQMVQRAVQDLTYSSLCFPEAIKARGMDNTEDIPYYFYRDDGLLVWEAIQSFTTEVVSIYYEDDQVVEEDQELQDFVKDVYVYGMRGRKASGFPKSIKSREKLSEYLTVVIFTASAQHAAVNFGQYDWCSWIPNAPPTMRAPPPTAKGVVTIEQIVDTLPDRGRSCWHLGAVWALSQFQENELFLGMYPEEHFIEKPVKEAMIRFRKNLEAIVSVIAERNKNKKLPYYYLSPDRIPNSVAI
Method: as §1
(b) Procedure for determining the inhibiting action upon leukocyte 5-lipoxygenase:
Determination was carried out according to modified B. A. Jakschik, et al, procedure (Biochem. Biophys. Res. Commun. 95, 103 (1980)). That is, leukemic basophilic granulocyte cells of rats (RBL-1, ATCC No. CRL 1378) were used as a 5-lipoxygenase enzyme source. The cells and 2-n-heptyl-4-hydroxyquinoline-N-oxide were brought into contact with each other in a 0.07 M tris hydrochloric acid buffer solution in the presence of 0.7 mM calcium chloride at 37° C. for 5 minutes, and then 20 μM of [^14 C]-arachidonic acid was added thereto. The mixture was incubated at 37° C. for 5 minutes. The reaction product was extracted with ethyl acetate/methanol/0.2M citric acid (30/4/1), and then separated by thin layer chromatography (developing solvent: petroleum ether/ethyl ether/acetic acid: 50/50/1). Spots of 5-hydroxy-[…]-eicosatetraenoic acid in the product were scraped off and ^14 C was measured by a liquid scintillation counter.
as §2

[1] = system: airway contraction reaction of passively sensitized guinea pigs; assay: suppressing action upon anaphylactic airway contraction reaction of passively sensitized guinea pigs; format: in vivo, guinea pig; conditions: 10 mg/kg P.O. one hour before antigen EWA (1 mg/kg); 6 guinea pigs vs 18 control
Method: Suppressing action of 2-n-heptyl-4-hydroxyquinoline-N-oxide upon the airway contraction reaction of passively sensitized guinea pigs was determined according to the following procedure:
Anaphylactic airway contraction reaction of passively sensitized guinea pigs by antigen administration was determined according to modified Konzett and Rossler procedure (Arch. exp. Path. Pharmakol., 195, 71 (1940)). Anti-EWA guinea pig serum (1 ml/animal) was intraperitoneally administered into normal guinea pigs to make the animals passively sensitized, and 24 hours thereafter, a tracheal cannule was inserted and fixed to the guinea pig under urethane anesthesia. An artificial respirator and a bronchospasm transducer were connected to the cannule. After the spontaneous respiration was stopped by intravenous injection of 10 mg/kg of gallamine triethiodide, 1 mg/kg of EWA was injected into the jugular vein to cause anaphylactic airway contraction, and the volume of air overflow from the tracheal cannule sideway was recorded on a polygraph through the transducer. After the end of measurement, the trachea was completely blockaded. The state of complete blockade was regarded as a maximum contraction, and the results were given in percentage to the maximum contraction.

SRS-A production = assay: suppressing action upon production of SRS-A (lung pieces of actively sensitized guinea pigs, EWA challenge); format: cell-based, guinea pig; conditions: for inhibition at 8.3 µg/mL: 8.3 μg/ml; for suppression of the production of SRS-A (in words): Table 4, 8.3 μg/ml
Method: An inhibiting action of 2-n-heptyl-4-hydroxyquinoline-N-oxide upon SRS-A production was determined according to the following procedure:
According to Watanabe-Kohno and Parker procedure (J. Immunol., 125, 946 (1980)), 20 mg of egg white albumin (hereinafter abbreviated as EWA), was dissolved in 10 ml of physiological saline solution, and the resulting solution was added to an equal volume of Freund's complete adjuvant to prepare an emulsion. Then, 1 ml of the emulsion was administered subcutaneously in the plantar surface of the hind paws of guinea pigs to make the animals actively sensitized. Three to five weeks thereafter, the guinea pigs were sacrified by exsanguination from the carotid artery, and the Tyrode's solution was perfused through right cardiac ventricle to wash lungs and remove blood. Then, the lungs were isolated and cut to pieces of about 2 mm size in the chilled Tyrode's solution with scissors, filtered through 2 sheets of gauze. Then, 400 mg of the fragments were distributed into individual test tubes containing 5 ml of the Tyrode's solution. The lung pieces were preincubated at 37° C. for 10 minutes, 0.5 ml of a test solution at various concentrations was added thereto, and the incubation was continued for 10 minutes at 37° C. Then, 0.5 ml of EWA (20 mg/ml) was added thereto, and the mixture was further incubated for 15 minutes. The reaction was discontinued by ice-cooling the mixture, and then the mixture was filtered through a sheet of gauze.
(§3) The amount of SRS-A in the filtrate was bioassayed using guinea pig ileum according to the Magnus procedure. That is, the ileums were suspended in 10 ml of organ bath filled with the Tyrode's solution (31 ±1° C., aerated with 95% O2 +5% CO2 gas mixture), and their movements were recorded on a recorder with a pen (Hitachi: QPD54) through an isotonic transducer (Nihon Koden: JD112S). After the ileum contraction reaction by 10^-7 M histamine was stabilized, 1 ml of the filtrate was added to the organ bath in the presence of 5 x 10^-7 M atropine and 10^-6 M tripelennamine to cause the ileum contraction reaction. It was known that the ileum contraction reaction by SRS-A was increased by repetitive applications and, therefore, after the reaction by at least 5 applications of the SRS-A prepared in advance became constant, control filtrate and a filtrate containing a test solution were used.
Suppressing actions of 2-n-propyl-4-hydroxyquinoline-N-oxide and 2-n-undecyl-4-hydroxyquinoline-N-oxide upon production of SRS-A were determined in the same manner as in Test Example 3.

SRS-A = assay: guinea pig ileum contraction reaction by SRS-A (Magnus procedure); conditions: 3×10^-7 M
Method: as §3

[2] = Cavia porcellus, read-out: Suppressing ratio, production of SRS-A
[3] = Table 2, same manner as Test Example 1

## CCCCCCCc1cc(O)c2ccccc2[n+]1[O-] [2-n-heptyl-4-hydroxyquinoline-N-oxide]
12-lipoxygenase
  IC50: 30 µM
12-lipoxygenase; in words
  inhibiting action upon 12-lipoxygenase compared with BW-755C: almost equal to that of known compound
5-lipoxygenase
  IC50: 0.15 µM
5-lipoxygenase; in words
  inhibiting action upon 5-lipoxygenase compared with BW-755C: much better in the present compound
[1]
  suppression of airway contraction reaction (increase in air overflow): significantly suppressed
SRS-A production; 4, 40, and 400 μg/ml
  formation of SRS-A (in words): suppressed by application of 4, 40, and 400 μg/ml of the present compound in a dose dependent manner
SRS-A production; [2]
  inhibition at 4 µg/mL: 26.2 ± 4.2%
  inhibition at 40 µg/mL: 60.1 ± 3.7%
  inhibition at 400 µg/mL: 84.3 ± 1.1%
SRS-A production; in words, measured at the same time
  intensity of SRS-A suppression compared with BW-755C: obviously better than the suppressing action of BW-755C

## CCCCCCCCCCCCCCCc1cc(O)c2ccccc2[n+]1[O-] [2-n-pentadecyl-4-hydro-xy-quinoline-N--oxide]
12-lipoxygenase; 10 min
  inhibition at 1000 µM: 56%
5-lipoxygenase; [3]
  IC50: 1 µM

## CCCc1cc(O)c2ccccc2[n+]1[O-] [2-n-propyl-4-hydroxyquinoline-N-oxide]
12-lipoxygenase; 10 min
  inhibition at 1000 µM: 46.3%
5-lipoxygenase; [3]
  IC50: 110 µM
SRS-A production; [2]
  inhibition at 8.3 µg/mL: 34.1%
SRS-A production
  suppression of the production of SRS-A (in words): suppress the production of SRS-A

## CCCCCCCCCCCc1cc(O)c2ccccc2[n+]1[O-] [2-n-undecyl-4-hydroxyquinoline-N-oxide]
12-lipoxygenase; 10 min
  inhibition at 1000 µM: 55.7%
5-lipoxygenase; [3]
  IC50: 0.2 µM
SRS-A production; [2]
  inhibition at 8.3 µg/mL: 17.5%
SRS-A production
  suppression of the production of SRS-A (in words): suppress the production of SRS-A

## NC1=NN(c2cccc(C(F)(F)F)c2)CC1 [BW-755C, 3-amino-1-(3-trifluoromethylphenyl)-2-pyrazoline hydrochloride, reference compound]
12-lipoxygenase; bovine blood platelet preparation, 35 μM [14C]arachidonic acid, pH 7.4, 30° C., 10 min, read-out: IC50, 12-lipoxygenase
  IC50: 25 µM
SRS-A production; Cavia porcellus, 40 μg/ml, read-out: Suppressing ratio, production of SRS-A
  inhibition at 40 µg/mL: 23.8 ± 8.8%

## CCCc1c(OCC(O)COc2ccc3c(=O)cc(C(=O)O)oc3c2CCC)ccc(C(C)=O)c1O (centres unmarked) [FPL-55712]
SRS-A
  suppression of ileum contraction reaction by SRS-A: almost completely suppressed
